Data on eight molecules can be found in patent US7834008B2, “Cyclopropyl derivatives as NK3 receptor antagonists” (H. Lundbeck A/S, priority 2003, dated 2010).

The first experiment deals with T1, human NK3 receptor (Homo sapiens, UniProt P29371).
T1 construct: expressed in transfected cells
T1 sequence (P29371 1-465): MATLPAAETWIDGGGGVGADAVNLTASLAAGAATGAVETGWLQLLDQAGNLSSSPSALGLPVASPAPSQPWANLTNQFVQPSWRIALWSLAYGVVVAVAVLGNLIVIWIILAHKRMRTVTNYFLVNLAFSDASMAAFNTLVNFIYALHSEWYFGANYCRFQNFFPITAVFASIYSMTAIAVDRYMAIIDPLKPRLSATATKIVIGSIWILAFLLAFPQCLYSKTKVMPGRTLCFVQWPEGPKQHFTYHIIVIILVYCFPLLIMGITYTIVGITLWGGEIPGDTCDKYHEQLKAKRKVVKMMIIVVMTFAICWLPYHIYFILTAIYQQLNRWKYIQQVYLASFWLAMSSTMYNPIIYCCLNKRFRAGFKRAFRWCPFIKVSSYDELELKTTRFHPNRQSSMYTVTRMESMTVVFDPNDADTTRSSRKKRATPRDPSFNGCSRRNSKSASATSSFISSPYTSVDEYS
Nature of the experiment: Fluorometric Imaging Plate Reader (FLIPR) calcium assay, antagonist test against NKB. Type of experiment: cell-based. The settings on record: BHK cells stably expressing the human NK3 receptor, EC85 of NKB (app. 1 nM). On the procedure:
The Fluorometric Imaging Plate Reader (FLIPR) assay: The compounds were analysed for efficacy profile in FLIPR assays similar to assays described in Jerman, J C et al: Eur J Pharmacol. 2001, 414, p 23-30. BHK cells (cf. Example 20) stably expressing the human NK3 receptor were seeded in 100 μl media in black walled clear-base 96-wells plates (Costar) aiming at a confluency of 95-100% at the day of assay. The assay was performed according to the calcium assay kit (Molecular Devices). Briefly, the calcium assay reagent was dissolved in Hanks BSS (HBSS) buffer, pH 7.4 containing 20 mM Hepes and 2.5 mM probinicid. An equal volume (100 μl) of the calcium assay reagent solution was added to the wells and the plates were incubated for 60 min at 37° C. The plates were subsequently placed in the FLIPR for examination of fluorescence.
Compounds were diluted in HBSS buffer containing 20 mM Hepes prior to test. For test of agonist activity 50 μl of compound was added to the wells and the plates were analysed for 3 minutes in the FLIPR. For test of antagonist activity, 25 μl of compound was added to the wells and the plate was analysed for a 5 minute period. Subsequently, the wells were added 25 μl of an EC85 (final concentration) of NKB (app. 1 nM) previously determined from a dose-response curve with NKB. The plates were subsequently read for 3 minutes before termination. As controls, selected wells on all plates were added only 100 nM of the NK3 receptor agonist NKB or 2 μM of the calcium ionophor ionomycin. The maximal increase in fluorescence over background following each ligand addition was determined and analysed.
`CC(=O)N1CC2(CCN(C[C@@H]3C[C@@]3(C(=O)N(C)Cc3ccc(F)cc3)c3ccccc3)CC2)c2ccccc21` [Compound 23a]: the “inhibition of the NKB-mediated activation of the NK3 receptor” value was “inhibited the NKB-mediated activation of the NK3 receptor”.
In the case of `CN(Cc1ccc(F)cc1)C(=O)[C@@]1(c2ccccc2)C[C@H]1CN1CCC(C(=O)N2CCCCC2)(c2ccccc2)CC1` [Compound 42a, (1S,2R)-1-Phenyl-2-[4-phenyl-4-(piperidine-1-carbonyl)-piperidin-1-ylmethyl]-cyclopropanecarboxylic acid (4-fluoro-benzyl)-methyl-amide], the “inhibition of the NKB-mediated activation of the NK3 receptor” value is listed as “inhibited the NKB-mediated activation of the NK3 receptor”.
Same read-out and setting: as for “(1S,2R)-1-(3,4-Difluoro-phenyl)-2-[4-phenyl-4-(piperidine-1-carbonyl)-piperidin-1-ylmethyl]-cyclopropanecarboxylic acid-methyl-amide [Compound 33a]”, the entry is “inhibited the NKB-mediated activation of the NK3 receptor”; as for `CC(=O)NC1(c2ccccc2)CCN(C[C@@H]2C[C@@]2(C(=O)N(C)Cc2ccc(F)cc2)c2ccc(Cl)cc2)CC1` [Compound 44a, (1S,2R)-2-(4-Acetylamino-4-phenyl-piperidin-1-ylmethyl)-1-(4-chloro-phenyl)-cyclopropanecarboxylic acid (4-fluoro-benzyl)-methyl-amide], “inhibited the NKB-mediated activation of the NK3 receptor”.
Still for that read-out and setting: as for `CC(=O)N1CC2(CCN(C[C@@H]3C[C@@]3(C(=O)N(C)Cc3ccc(F)cc3)c3ccc(F)cc3)CC2)c2cc(F)ccc21` [Compound 32a], the entry is “inhibited the NKB-mediated activation of the NK3 receptor”; as for `CC(=O)NC1(c2ccccc2)CCN(C[C@@H]2C[C@@]2(C(=O)N(C)Cc2ccccc2Cl)c2ccc(Cl)cc2)CC1` [Compound 45a, (1S,2R)-2-(4-Acetylamino-4-phenyl-piperidin-1-ylmethyl)-1-(4-chloro-phenyl)-cyclopropanecarboxylic acid (2-chloro-benzyl)-methyl-amide], “inhibited the NKB-mediated activation of the NK3 receptor”; as for `CC(=O)N1CC2(CCN(C[C@@H]3C[C@@]3(C(=O)N(C)Cc3ccc(F)cc3)c3ccccc3)CC2)c2cc(F)ccc21` [Compound 25a], “inhibited the NKB-mediated activation of the NK3 receptor”.

System in another experiment: not given
Assay: not given
The settings on record: in particular positive symptoms; cited from earlier work.
Take `CC(=O)N(C)C1(c2ccccc2)CCN(CCC[C@]2(c3ccc(Cl)c(Cl)c3)CCCN(C(=O)c3ccccc3)C2)CC1` [SR142801]: the effect against schizophrenia entry is “has effect against schizophrenia”.
